Holding throughout (assay): ITC
Holding throughout (format): binding

The target in assay [1] is T1, AMPylated BiP* FL (Cricetulus griseus, UniProt G3I8R9, T229G/V461F).
T1 construct: gene HSPA5; T229G
The text has this: ITC on AMPylated BiP* FL | nucleotide (ATP or ADP) binding to non-AMPylated and AMPylated V461F BiP* measured by ITC

Assay [2] addresses T2, BiP* FL (full-length T229G BiP, BiP(1-641)) (Cricetulus griseus, UniProt G3I8R9, T229G/V461F).
T2 construct: gene HSPA5; full-length two-domain BiP, residues 1-641 as printed, non-cleavable N-terminal 6xHis tag, pET28a, E. coli BL21(DE3); ATPase-deficient T229G; non-AMPylated
From the text:
ITC on BiP* FL (full-length T229G BiP, BiP(1-641)) | ATP and ADP binding obtained from ITC experiments for FL BiP*

Assay [3] has as its target T3, BiP* FL (full-length T229G BiP, BiP(1-641)) (Cricetulus griseus, UniProt G3I8R9, T229G).
T3 construct: gene HSPA5; full-length two-domain BiP, residues 1-641 as printed, non-cleavable N-terminal 6xHis tag, pET28a, E. coli BL21(DE3); ATPase-deficient T229G; non-AMPylated
From the text:
ITC on BiP* FL (full-length T229G BiP, BiP(1-641))

For assay [4], the target named is T4, BiP* NBD(1-417) (Cricetulus griseus, UniProt G3I8R9, T229G).
T4 construct: gene HSPA5; T229G
T4 sequence (G3I8R9 1-417 T229G): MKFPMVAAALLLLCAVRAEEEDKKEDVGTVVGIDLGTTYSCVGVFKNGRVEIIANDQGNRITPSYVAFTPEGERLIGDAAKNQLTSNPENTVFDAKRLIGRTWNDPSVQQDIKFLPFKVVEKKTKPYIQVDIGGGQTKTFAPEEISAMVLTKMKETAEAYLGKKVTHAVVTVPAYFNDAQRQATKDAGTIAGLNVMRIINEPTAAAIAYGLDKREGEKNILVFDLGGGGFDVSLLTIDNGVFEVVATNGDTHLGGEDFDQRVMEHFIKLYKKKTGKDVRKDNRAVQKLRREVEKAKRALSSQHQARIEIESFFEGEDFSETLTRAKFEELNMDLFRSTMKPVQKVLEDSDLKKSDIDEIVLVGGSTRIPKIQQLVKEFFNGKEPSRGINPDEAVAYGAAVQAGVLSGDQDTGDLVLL

Assay [5] deals with T5, BiP* NBD(1-413) (Cricetulus griseus, UniProt G3I8R9, T229G).
T5 construct: gene HSPA5; T229G
T5 sequence (G3I8R9 1-413 T229G): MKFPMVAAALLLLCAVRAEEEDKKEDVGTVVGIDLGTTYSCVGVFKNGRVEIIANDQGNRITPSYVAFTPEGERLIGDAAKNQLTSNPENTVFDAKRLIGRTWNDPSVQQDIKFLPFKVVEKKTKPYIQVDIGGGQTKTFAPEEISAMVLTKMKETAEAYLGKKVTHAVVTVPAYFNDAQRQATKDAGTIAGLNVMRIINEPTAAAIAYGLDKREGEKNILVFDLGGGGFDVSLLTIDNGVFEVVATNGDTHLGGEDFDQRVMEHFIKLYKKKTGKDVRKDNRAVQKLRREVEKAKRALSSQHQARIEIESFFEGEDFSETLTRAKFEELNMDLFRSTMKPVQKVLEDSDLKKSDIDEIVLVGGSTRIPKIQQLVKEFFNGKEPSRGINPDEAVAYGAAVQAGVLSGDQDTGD

T2 sequence (G3I8R9 1-641 T229G/V461F): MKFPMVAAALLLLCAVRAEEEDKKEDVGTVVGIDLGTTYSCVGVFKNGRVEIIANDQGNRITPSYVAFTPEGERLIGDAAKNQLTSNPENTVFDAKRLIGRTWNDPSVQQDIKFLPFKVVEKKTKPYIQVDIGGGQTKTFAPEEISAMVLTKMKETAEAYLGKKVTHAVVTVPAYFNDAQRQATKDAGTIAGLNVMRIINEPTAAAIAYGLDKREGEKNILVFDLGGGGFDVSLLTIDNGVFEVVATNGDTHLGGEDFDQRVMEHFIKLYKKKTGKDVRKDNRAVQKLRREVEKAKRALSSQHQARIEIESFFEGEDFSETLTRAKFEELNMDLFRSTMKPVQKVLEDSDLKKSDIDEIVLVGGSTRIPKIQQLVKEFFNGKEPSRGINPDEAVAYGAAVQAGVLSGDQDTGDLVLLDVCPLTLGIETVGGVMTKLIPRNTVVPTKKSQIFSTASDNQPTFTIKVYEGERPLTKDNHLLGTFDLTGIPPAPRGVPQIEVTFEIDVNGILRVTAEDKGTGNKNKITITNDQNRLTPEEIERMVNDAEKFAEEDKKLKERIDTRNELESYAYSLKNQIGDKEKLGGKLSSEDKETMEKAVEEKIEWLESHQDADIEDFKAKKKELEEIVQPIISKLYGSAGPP
T1 sequence (G3I8R9 1-641 T229G/V461F): as above
T3 sequence (G3I8R9 1-641 T229G): as the sequence (G3I8R9 1-641 T229G/V461F) above, with F461V counted along it

With `Nc1ncnc2c1ncn2[C@@H]1O[C@H](COP(=O)(O)OP(=O)(O)OP(=O)(O)O)[C@@H](O)[C@H]1O` [ATP], the dissociation constant Kd (usually the free concentration of one partner at which half of the binding sites on the other are occupied at equilibrium, for simple one-to-one binding) came out at 0.07 µM in assay [1] and 0.21 µM in assay [2].

Turning to `Nc1ncnc2c1ncn2[C@@H]1O[C@H](COP(=O)(O)OP(=O)(O)O)[C@@H](O)[C@H]1O` [ADP], the dissociation constant (Kd) in assay [3] worked out at 5.73 µM; in assay [4], 3.94 µM; in assay [5] it was 5.27 µM; in assay [1], 2.36 µM; in assay [2], 4.49 µM.

These data come from PMC5655141, “Allosteric fine-tuning of the conformational equilibrium poises the chaperone BiP for post-translational regulation” (eLife, 2017).
